The text below walks through data of patent US8697739B2, “Bicyclic acetyl-CoA carboxylase inhibitors and uses thereof” (Novartis AG, priority 2010, dated 2014).

Bounds are passed on as bounds.

The target of this test is T1, human acetyl-CoA carboxylase 2 (ACC2) (Homo sapiens, UniProt O00763).
T1 construct: The cDNA encoding amino acids 144 to 2458 of human acetyl-CoA carboxylase 2; made in house; host or cells: Sf9 insect cells (baculovirus, pFastBac1)
T1 sequence (O00763 144-2458): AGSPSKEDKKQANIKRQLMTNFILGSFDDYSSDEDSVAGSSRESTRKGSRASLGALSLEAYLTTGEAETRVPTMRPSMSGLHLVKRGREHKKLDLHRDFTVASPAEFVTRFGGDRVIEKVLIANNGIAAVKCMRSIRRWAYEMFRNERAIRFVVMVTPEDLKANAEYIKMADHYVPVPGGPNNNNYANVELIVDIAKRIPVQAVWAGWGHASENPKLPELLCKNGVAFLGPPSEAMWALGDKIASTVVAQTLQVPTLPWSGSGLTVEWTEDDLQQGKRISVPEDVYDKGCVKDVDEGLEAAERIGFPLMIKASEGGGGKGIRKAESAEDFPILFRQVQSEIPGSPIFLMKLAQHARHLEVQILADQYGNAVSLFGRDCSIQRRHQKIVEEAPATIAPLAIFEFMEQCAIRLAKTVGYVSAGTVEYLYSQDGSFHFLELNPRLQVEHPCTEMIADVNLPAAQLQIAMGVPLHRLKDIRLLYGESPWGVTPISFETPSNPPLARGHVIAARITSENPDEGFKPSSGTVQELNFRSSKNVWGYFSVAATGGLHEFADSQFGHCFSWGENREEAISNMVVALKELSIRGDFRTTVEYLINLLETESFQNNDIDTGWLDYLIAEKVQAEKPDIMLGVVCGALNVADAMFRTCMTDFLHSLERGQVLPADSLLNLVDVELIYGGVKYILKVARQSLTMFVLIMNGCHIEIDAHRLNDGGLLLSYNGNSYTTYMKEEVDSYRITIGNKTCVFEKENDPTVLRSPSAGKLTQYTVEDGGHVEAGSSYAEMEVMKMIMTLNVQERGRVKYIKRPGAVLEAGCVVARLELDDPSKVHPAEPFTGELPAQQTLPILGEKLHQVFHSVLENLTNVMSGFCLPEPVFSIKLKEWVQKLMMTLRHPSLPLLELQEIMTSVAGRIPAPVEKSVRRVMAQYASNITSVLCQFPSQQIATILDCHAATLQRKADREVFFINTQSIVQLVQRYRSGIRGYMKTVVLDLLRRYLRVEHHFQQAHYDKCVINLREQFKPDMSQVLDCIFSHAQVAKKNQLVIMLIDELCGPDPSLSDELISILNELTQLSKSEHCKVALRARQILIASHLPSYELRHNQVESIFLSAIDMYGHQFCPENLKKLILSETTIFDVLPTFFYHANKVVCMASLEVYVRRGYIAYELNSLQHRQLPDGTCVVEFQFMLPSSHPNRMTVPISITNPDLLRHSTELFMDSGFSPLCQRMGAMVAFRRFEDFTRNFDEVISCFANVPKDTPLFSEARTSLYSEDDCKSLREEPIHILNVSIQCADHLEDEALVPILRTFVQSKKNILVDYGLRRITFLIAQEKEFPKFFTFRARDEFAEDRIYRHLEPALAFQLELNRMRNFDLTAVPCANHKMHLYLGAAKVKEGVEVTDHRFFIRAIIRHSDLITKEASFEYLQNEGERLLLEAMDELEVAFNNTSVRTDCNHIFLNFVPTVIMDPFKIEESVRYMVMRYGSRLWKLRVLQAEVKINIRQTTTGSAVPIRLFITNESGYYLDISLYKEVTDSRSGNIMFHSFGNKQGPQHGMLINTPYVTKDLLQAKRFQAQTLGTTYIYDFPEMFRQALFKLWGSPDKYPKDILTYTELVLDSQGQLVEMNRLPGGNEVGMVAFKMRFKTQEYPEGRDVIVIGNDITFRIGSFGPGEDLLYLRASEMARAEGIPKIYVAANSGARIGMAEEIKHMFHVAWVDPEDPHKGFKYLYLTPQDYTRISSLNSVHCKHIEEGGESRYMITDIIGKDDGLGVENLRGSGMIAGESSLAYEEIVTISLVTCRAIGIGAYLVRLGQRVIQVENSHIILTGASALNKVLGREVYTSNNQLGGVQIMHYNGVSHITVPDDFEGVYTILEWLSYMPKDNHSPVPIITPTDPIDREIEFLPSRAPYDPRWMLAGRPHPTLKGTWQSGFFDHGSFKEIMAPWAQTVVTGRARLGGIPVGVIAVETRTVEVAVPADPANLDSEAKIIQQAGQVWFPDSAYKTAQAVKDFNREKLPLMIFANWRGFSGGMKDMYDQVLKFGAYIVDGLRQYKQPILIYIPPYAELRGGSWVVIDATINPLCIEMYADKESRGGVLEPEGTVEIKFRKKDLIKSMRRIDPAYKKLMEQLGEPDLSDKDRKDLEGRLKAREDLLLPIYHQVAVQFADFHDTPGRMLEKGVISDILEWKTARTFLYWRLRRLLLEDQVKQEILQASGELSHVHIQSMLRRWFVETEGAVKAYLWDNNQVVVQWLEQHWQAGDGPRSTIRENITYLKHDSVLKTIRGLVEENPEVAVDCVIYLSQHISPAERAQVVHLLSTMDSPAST
In words: Acetyl-CoA carboxylase enzyme assay (malonyl-CoA formation by LC/MS/MS). In kind it is biochemical. The conditions noted are these: recombinant human ACC2 (aa 144-2458); read-out: IC50 ACC2. The source says:
The cDNA encoding amino acids 144 to 2458 of human acetyl-CoA carboxylase 2 (ACC2, GenBank Accession #NM_001093) was cloned into the SalI and NotI sites of pFastBac1 (Invitrogen; Carlsbad, Calif.). The resulting plasmid was used to generate a recombinant ACC2 baculovirus that was amplified and titered according to the protocols in the Bac-to-Bac baculovirus expression system manual (Invitrogen). The titered virus was used to infect Sf9 cells grown in Ex-Cell 420 serum-free medium (JRH Biosciences; Lenexa, Kans.). At 48 hours post-infection, the cells were harvested and stored at −80° C. until purification. ACC2 was purified using ammonium sulfate precipitation and anion exchange chromatography.
The enzymatic assay was run as follows: 30 μL of reaction buffer (100 mM HEPES pH 7.5, 20 mM MgCl2, 20 mM potassium citrate, 2 mM DTT) was added to a 384-well microtiter plate followed by 2 μL of the test compound (or 100% DMSO control). ACC2 protein (10 μL of a 50 nM working solution) was added to plate, which was incubated at room temperature for 15 minutes. A 30 μL addition of substrate solution (50 μM acetyl-CoA, 120 μM ATP, 2 mM KHCO3) was used to initiate the reactions which were quenched with 6% acetic acid (40 μL). ACC catalyzed malonyl-CoA formation was detected by LC/MS/MS using a Cohesive Technologies LX Series multiplex LC/MSIMS system configured with four binary pumps (Agilent Technologies; Palo Alto, Calif.), a dual arm autosampler (Leap Technologies; Cary, N.C.), and one Quattro Micro triple quadrupole mass spectrometer (Waters, Milford, Mass.), all run by Aria Software version 1.5 (Cohesive Technologies; Franklin, Mass.). Four samples were injected (20 μL) onto four Phenosphere NEXT C18 30×2 mm 5 μm columns (Phenomenex; Torrance, Calif.), eluted by four separate pumps, running identical gradients, through a column switching manifold with the one outlet fitted to the electrospray (ESI) source. Malonyl-CoA was eluted with 5 mM ammonium acetate, pH 4.5 (Buffer A) and 100% acetonitrile (Buffer B) via a step gradient. Argon was used as the collision gas and the following species were monitored via MRM detection: malonyl-CoA (853.8>346.9), internal standard (A: [^13C3]-malonyl-CoA, 857>350). The lower limit of detection is 0.3 uM for malonyl-CoA in this assay.
As for `C[C@@H](NC(=O)[C@H]1CC[C@H](NS(=O)(=O)c2ccc3[nH]c(-c4ccccc4)nc3c2)CC1)c1ccccc1` [Example 1, (1r,4R)-4-(2-phenyl-1H-benzo[d]imidazole-5-sulfonamido)-N—((R)-1-phenylethyl)cyclohexanecarboxamide], the IC50 amounted to 13 nM.

`CCOC(=O)c1cccc(-c2nc3ccc(S(=O)(=O)N[C@H]4CC[C@H](C(=O)N[C@H](C)c5ccccc5)CC4)cc3[nH]2)c1` [Example 2, ethyl 3-(6-(N-((1R,4r)-4-((R)-1-phenylethylcarbamoyl)cyclohexyl)sulfamoyl)-1H-benzo[d]imidazol-2-yl)benzoate]: the IC50 was 19 nM. Then `C[C@@H](NC(=O)[C@H]1CC[C@H](NS(=O)(=O)c2ccc3[nH]c([C@@H]4CCCN4)nc3c2)CC1)c1ccc(F)cc1` [Example 3, (1r,4R)—N—((R)-1-(4-fluorophenyl)ethyl)-4-(2-((S)-pyrrolidin-2-yl)-1H-benzo[d]imidazole-5-sulfonamido)cyclohexanecarboxamide], with 507 nM. As for `C[C@@H](NC(=O)[C@H]1CC[C@H](NS(=O)(=O)c2ccc3c(c2)nc(-c2ccccc2)n3C)CC1)c1ccc(F)cc1` [Example 4, (1r,4R)—N—((R)-1-(4-fluorophenyl)ethyl)-4-(1-methyl-2-phenyl-1H-benzo[d]imidazole-5-sulfonamido)cyclohexanecarboxamide], the figure is 13 nM.

Turning to `Cc1nc2cc(S(=O)(=O)N[C@H]3CC[C@H](C(=O)N[C@H](C)c4ccc(F)cc4)CC3)ccc2n1C` [Example 5, (1r,4R)-4-(1,2-dimethyl-1H-benzo[d]imidazole-5-sulfonamido)-N—((R)-1-(4-fluorophenyl)ethyl)cyclohexanecarboxamide], the IC50 turned out to be 244 nM.

For `C[C@@H](NC(=O)[C@H]1CC[C@H](NS(=O)(=O)c2ccc3nc(C4CCOCC4)[nH]c3c2)CC1)c1ccc(F)cc1` [Example 6, (1r,4R)—N—((R)-1-(4-fluorophenyl)ethyl)-4-(2-(tetrahydro-2H-pyran-4-yl)-1H-benzo[d]imidazole-6-sulfonamido)cyclohexanecarboxamide], the IC50 worked out at 156 nM. Then `CC(C)N(C)C(=O)[C@H]1CC[C@H](NS(=O)(=O)c2ccc3[nH]c(Nc4ccccc4)nc3c2)CC1` [Example 7, (1r,4r)-N-isopropyl-N-methyl-4-(2-(phenylamino)-1H-benzo[d]imidazole-5-sulfonamido)cyclohexanecarboxamide], with 71 nM. As for `CC(=O)Nc1ccc(-c2nc3ccc(S(=O)(=O)N[C@H]4CC[C@H](C(=O)OC(C)C)CC4)cc3[nH]2)cc1` [Example 8, (1r,4r)-isopropyl 4-(2-(4-acetamidophenyl)-1H-benzo[d]imidazole-5-sulfonamido)cyclohexanecarboxylate], the figure is 45 nM; as for `CN1CCN(c2ccc(Nc3nc4cc(S(=O)(=O)N[C@H]5CC[C@H](c6nnc(C(C)(C)C)o6)CC5)ccc4[nH]3)cc2)CC1` [Example 9, N-((1r,4r)-4-(5-tert-butyl-1,3,4-oxadiazol-2-yl)cyclohexyl)-2-(4-(4-methylpiperazin-1-yl)phenylamino)-1H-benzo[d]imidazole-5-sulfonamide], 47 nM; as for `CN1CCN(c2ccc(-c3nc4cc(S(=O)(=O)N[C@H]5CC[C@H](c6nnc(C(C)(C)C)o6)CC5)ccc4[nH]3)cc2)CC1` [Example 10, N-((1r,4r)-4-(5-tert-butyl-1,3,4-oxadiazol-2-yl)cyclohexyl)-2-(4-(4-methylpiperazin-1-yl)phenyl)-1H-benzo[d]imidazole-5-sulfonamide], 115 nM. As for `C[C@@H](NC(=O)[C@H]1CC[C@H](NS(=O)(=O)c2ccc3nc(-c4ccccc4)oc3c2)CC1)c1ccc(F)cc1` [Example 11, N—((R)-1-(4-fluorophenyl)ethyl)-4-(2-phenylbenzo[d]oxazole-6-sulfonamido)cyclohexanecarboxamide], the figure is 48 nM; as for `C[C@@H](NC(=O)[C@H]1CC[C@H](NS(=O)(=O)c2ccc3c(ccn3C)c2)CC1)c1ccc(F)cc1` [Example 12, (1r,4R)—N—((R)-1-(4-fluorophenyl)ethyl)-4-(1-methyl-1H-indole-5-sulfonamido)cyclohexanecarboxamide], 55 nM; as for `C[C@@H](NC(=O)[C@H]1CC[C@H](NS(=O)(=O)c2ccc3[nH]c(-c4ccccc4)cc3c2)CC1)c1ccccc1` [Example 13, (1r,4R)-4-(2-phenyl-1H-indole-5-sulfonamido)-N—((R)-1-phenylethyl)cyclohexanecarboxamide], 65 nM. Take `C[C@@H](NC(=O)[C@H]1CC[C@H](NS(=O)(=O)c2ccc3c(c2)cc(-c2ccccc2)n3C)CC1)c1ccc(F)cc1` [Example 14, (1r,4R)—N—((R)-1-(4-fluorophenyl)ethyl)-4-(1-methyl-2-phenyl-1H-indole-5-sulfonamido)cyclohexanecarboxamide]: the IC50 came out at 10 nM. For the compound `Cn1c(-c2ccccc2)cc2cc(S(=O)(=O)N[C@H]3CC[C@H](C(=O)N[C@@H](c4ccccc4)C(C)(C)O)CC3)ccc21` [Example 15, (1r,4S)—N—((S)-2-hydroxy-2-methyl-1-phenylpropyl)-4-(1-methyl-2-phenyl-1H-indole-5-sulfonamido)cyclohexanecarboxamide], the IC50 is less than 10 nM.

For the compound `C[C@@H](NC(=O)[C@H]1CC[C@H](NS(=O)(=O)c2ccc3[nH]ccc3c2)CC1)c1ccc(F)cc1` [Example 16, (1r,4R)—N—((R)-1-(4-fluorophenyl)ethyl)-4-(1H-indole-5-sulfonamido)cyclohexanecarboxamide], the IC50 came to 51 nM. Regarding `Cc1cn(C)c2ncc(S(=O)(=O)N[C@H]3CC[C@H](C(=O)N[C@H](C)c4ccc(F)cc4)CC3)cc12` [Example 17], the IC50 was 65 nM. Regarding `C[C@@H](NC(=O)[C@H]1CC[C@H](NS(=O)(=O)c2ccc3cc(-c4ccccc4)[nH]c3c2)CC1)c1ccc(F)cc1` [Example 18, (1r,4R)—N—((R)-1-(4-fluorophenyl)ethyl)-4-(2-phenyl-1H-indole-6-sulfonamido)cyclohexanecarboxamide], the IC50 was found to be 11 nM. Consider `C[C@@H](NC(=O)[C@H]1CC[C@H](NS(=O)(=O)c2ccc3cc(-c4ccccc4)[nH]c3c2)CC1)c1ccccn1` [Example 19, (1r,4R)-4-(2-phenyl-1H-indole-6-sulfonamido)-N—((R)-1-(pyridin-2-yl)ethyl)cyclohexanecarboxamide], for which the IC50 was 56 nM. As for `C[C@@H](NC(=O)[C@H]1CC[C@H](NS(=O)(=O)c2ccc3cc(-c4ccccc4)n(C)c3c2)CC1)c1ccc(F)cc1` [Example 20, (1r,4R)—N—((R)-1-(4-fluorophenyl)ethyl)-4-(1-methyl-2-phenyl-1H-indole-6-sulfonamido)cyclohexanecarboxamide], the figure is less than 10 nM; as for `Cn1c(-c2ccccc2)c(Cl)c2ccc(S(=O)(=O)N[C@H]3CC[C@H](C(=O)N4CCN[C@H](C(F)(F)F)C4)CC3)cc21` [Example 21, 3-chloro-1-methyl-2-phenyl-N-((1S,4r)-4-((S)-3-(trifluoromethyl)piperazine-1-carbonyl)cyclohexyl)-1H-indole-6-sulfonamide], less than 10 nM; as for `CC(C)[C@H]1COCCN1C(=O)[C@H]1CC[C@H](NS(=O)(=O)c2ccc3cc(C4CC4)n(C)c3c2)CC1` [Example 22, 2-cyclopropyl-N-((1S,4r)-4-((S)-3-isopropylmorpholine-4-carbonyl)cyclohexyl)-1-methyl-1H-indole-6-sulfonamide], 70 nM.

Turning to `Cn1c(C2CC2)c(C#N)c2ccc(S(=O)(=O)N[C@H]3CC[C@H](C(=O)N4CCOCC4)CC3)cc21` [Example 23, 3-cyano-2-cyclopropyl-1-methyl-N-((1r,4r)-4-(morpholine-4-carbonyl)cyclohexyl)-1H-indole-6-sulfonamide], the half-inhibitory concentration (IC50) amounted to 150 nM. As for `Cn1c(C2CC2)cc2ccc(S(=O)(=O)N[C@H]3CC[C@](C)(C(=O)N4CCOCC4)CC3)cc21` [Example 24, 2-cyclopropyl-1-methyl-N-((1r,4r)-4-methyl-4-(morpholine-4-carbonyl)cyclohexyl)-1H-indole-6-sulfonamide], the figure is 230 nM. Then `C[C@@H](NC(=O)[C@H]1CC[C@H](NS(=O)(=O)c2ccc3c(Cl)c[nH]c3c2)CC1)c1ccc(F)cc1` [Example 26, (1r,4R)-4-(3-chloro-1H-indole-6-sulfonamido)-N—((R)-1-(4-fluorophenyl)ethyl)cyclohexanecarboxamide], with 20 nM.

What is called IC50 is the concentration needed to halve the response being measured.
